Columns and labels:
PARP1 = PARP1 (Homo sapiens, UniProt P09874); test: PARP1 chemiluminescent assay; type: biochemical; conditions: recombinant PARP1 enzyme activity, chemiluminescence
Protocol: (§1) Mix the solution of recombinant poly ADP ribotransferase 1 and 2 (PARP1 and PARP2) (40 ng enzyme/well) and the compounds to be tested, respectively. And then added to a 96-well plate coated with […] mixture, incubated at room temperature for 1 h. Then add 50 μL 0.3 ng/mL Streptavidin-HRP to each well. The plates were incubated for 30 minutes at room temperature. Finally, the plates were treated with streptavidin-HRP followed by addition of the ELISA ECL substrate to produce chemiluminescence that can then be measured using a chemiluminescence reader. The inhibition rate of the compound to PARP1/2 enzyme activity was calculated according to the following formula. [formula] IC50 value is obtained by fitting the s-shaped dose response curve equation by using XL Fit software. The curve equation is Y=100/(1+10^(log C−log IC50)), C is the compound concentration. Table 1 summarizes the inhibitory effects of compounds on PARP1 and PARP2 enzyme activity (IC50), wherein +++++ indicates IC50≤1 nM; ++++ indicates 1<IC50≤10 nM; +++ indicates 10 nM<IC50≤100 nM: ++ indicates 100 nM<IC50≤1 μM; + indicates IC50>1 μM.

PARP2 = PARP2 (Homo sapiens, UniProt Q9UGN5); test: PARP2 chemiluminescent assay; type: biochemical; conditions: recombinant PARP2 enzyme activity, chemiluminescence
Protocol: as §1

MDA-MB-436 cells = test: Inhibition of proliferation of human breast cancer MDA-MB-436 cell line (CCK-8, 7 days); type: cell-based; conditions: proliferation of MDA-MB-436, 7 days
How it was run: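 Cells seeded at 3000/well were treated next day with 8 serial doses (DMSO control) for 7 days at 37° C., 5% CO2, with compound medium changed on day four. CCK-8 was added for 4 hours and OD read as 450 nm minus 650 nm. IC50 came from a sigmoidal fit of survival relative to DMSO.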

Chain of PARP2 (Q9UGN5 whole entry, species assumed): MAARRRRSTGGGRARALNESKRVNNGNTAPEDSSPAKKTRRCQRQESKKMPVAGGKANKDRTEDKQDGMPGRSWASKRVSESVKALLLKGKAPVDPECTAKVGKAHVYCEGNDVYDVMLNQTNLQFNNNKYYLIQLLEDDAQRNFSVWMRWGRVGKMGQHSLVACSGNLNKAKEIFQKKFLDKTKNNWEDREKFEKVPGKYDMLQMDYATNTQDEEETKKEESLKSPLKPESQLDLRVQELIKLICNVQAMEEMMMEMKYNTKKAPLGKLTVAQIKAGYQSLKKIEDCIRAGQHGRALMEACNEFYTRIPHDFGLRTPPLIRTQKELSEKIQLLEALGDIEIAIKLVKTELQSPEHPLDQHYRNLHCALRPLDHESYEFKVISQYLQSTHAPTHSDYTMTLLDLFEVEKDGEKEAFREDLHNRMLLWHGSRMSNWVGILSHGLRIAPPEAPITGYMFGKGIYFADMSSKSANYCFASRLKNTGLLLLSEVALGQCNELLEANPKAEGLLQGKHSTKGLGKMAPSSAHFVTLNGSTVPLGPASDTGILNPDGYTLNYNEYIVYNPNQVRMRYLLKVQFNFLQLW
Chain of PARP1 (P09874 whole entry): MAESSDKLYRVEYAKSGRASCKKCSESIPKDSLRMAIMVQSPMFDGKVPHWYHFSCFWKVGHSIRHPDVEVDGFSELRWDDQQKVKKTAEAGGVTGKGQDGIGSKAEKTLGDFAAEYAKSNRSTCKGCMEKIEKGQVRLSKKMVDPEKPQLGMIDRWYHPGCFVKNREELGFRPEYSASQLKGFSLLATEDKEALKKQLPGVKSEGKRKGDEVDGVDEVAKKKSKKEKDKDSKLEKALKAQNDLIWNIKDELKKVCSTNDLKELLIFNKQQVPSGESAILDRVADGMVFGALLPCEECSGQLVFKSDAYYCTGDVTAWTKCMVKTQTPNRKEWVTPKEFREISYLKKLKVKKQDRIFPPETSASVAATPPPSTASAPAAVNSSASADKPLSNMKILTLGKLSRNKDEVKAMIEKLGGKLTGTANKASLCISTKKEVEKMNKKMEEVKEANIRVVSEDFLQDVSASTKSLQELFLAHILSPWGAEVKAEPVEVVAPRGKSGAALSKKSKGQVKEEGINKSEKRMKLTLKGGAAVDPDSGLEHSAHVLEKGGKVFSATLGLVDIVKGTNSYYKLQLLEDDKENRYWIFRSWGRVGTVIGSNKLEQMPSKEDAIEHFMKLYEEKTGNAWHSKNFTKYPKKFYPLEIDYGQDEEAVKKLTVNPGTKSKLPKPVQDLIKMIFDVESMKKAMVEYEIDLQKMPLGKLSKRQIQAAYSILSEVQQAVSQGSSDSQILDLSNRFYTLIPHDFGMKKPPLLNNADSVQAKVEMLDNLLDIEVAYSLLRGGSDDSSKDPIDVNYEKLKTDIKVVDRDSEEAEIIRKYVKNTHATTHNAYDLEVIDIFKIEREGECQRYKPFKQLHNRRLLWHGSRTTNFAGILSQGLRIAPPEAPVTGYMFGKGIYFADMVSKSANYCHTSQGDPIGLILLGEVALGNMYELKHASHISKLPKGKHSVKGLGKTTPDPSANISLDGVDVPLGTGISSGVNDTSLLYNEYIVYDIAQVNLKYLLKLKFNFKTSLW

Compound	IC50 (PARP1) [nM]	IC50 (PARP2) [nM]	IC50 (MDA-MB-436 cells; Homo sapiens, 168 h) [nM]	IC50 (MDA-MB-436 cells) [nM]
CCN1Cc2c(F)cc(CN3CCN(c4ccc(C(=O)NC)nc4C)CC3)cc2NC1=O [Example 119, 5-(4-((3-ethyl-5-fluoro-2-oxo-1,2,3,4-tetrahydroquinazolin-7-yl)methyl)piperazin-1-yl)-N,6-dimethylpicolinamide]	1 to 10	> 1000	1 to 10	–
CCn1c(=O)[nH]c2cc(CN3CCN(c4ccc(C(=O)NC5CC5)nc4F)CC3)ccc2c1=O [Example 135, N-cyclopropyl-5-(4-((3-ethyl-2,4-dioxo-1,2,3,4-tetrahydroquinazolin-7-yl)methyl)piperazin-1-yl)-6-fluoropicolinamide]	1 to 10	100 to 1000	1 to 10	–
O=C(c1cc(Cn2c(=O)[nH]c(=O)c3c(F)cccc32)ccc1F)N1CCN(c2ncccn2)CC1 [Senaparib, reference compound]	1 to 10	1 to 10	–	1 to 10
